Data: the supplement of paper PMC11061612

Assays:
[1] = tested on: OCI-AML3 (Acute Myeloid Leukemia); test: Bliss excess, mean over the matrix (fraction); higher = more synergy
Procedure, shortened: (§1)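 After 24 hours at 37°C and 5% CO2 in 1536-well plates, cells in DMEM/F12 or RPMI plus 10% FBS received two-drug dose matrices for 72 hours. Viability came from CellTiter-Glo 2.0 luminescence and was scaled as inhibition, anchored at 0 by vehicle wells and at 1 by blank wells. Combination Emax is taken as the second-highest inhibition in the matrix, and Bliss excess as the observed combination effect less EA + EB − EA·EB, with EA and EB the single-agent effects.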

[2] = tested on: OCI-AML3 (Acute Myeloid Leukemia); test: combination Emax (second highest fraction inhibited in the dose matrix, 72 h); higher = more inhibition; extreme values may be limits of the assay
Procedure, shortened: as §1

[3] = tested on: RPMI-8226 (Plasma Cell Myeloma); test: as above
Procedure, shortened: as §1

[4] = tested on: SUP-B15 (B-Lymphoblastic Leukemia); test: as above
Procedure, shortened: as §1
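Wherever Bliss excess, mean over the matrix is given: after 72 h of two-drug dosing.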

## Cc1nc(Nc2ncc(C(=O)Nc3c(C)cccc3Cl)s2)cc(N2CCN(CCO)CC2)n1 [Dasatinib] + CC(=O)Nc1cccc(-n2c(=O)n(C3CC3)c(=O)c3c(Nc4ccc(I)cc4F)n(C)c(=O)c(C)c32)c1 [Trametinib] (first compound max 2 µM, 7x7, partner max 1 µM)
[1]
  Bliss excess: -0.0745
[2]
  combination Emax: 0.942
[3]
  combination Emax: 0.239
[4]
  combination Emax: 0.952

## COc1cc2ncnc(Nc3ccc(F)c(Cl)c3)c2cc1OCCCN1CCOCC1 [Gefitinib] + CC(C)n1c(=O)n(C)c2cnc3cc(F)c(-c4ccc(OCCCN5CCCCC5)nc4)cc3c21 [AZD1390] (first compound max 10 µM, 7x7, partner max 0.3 µM)
[1]
  Bliss excess: -0.0457
[2]
  combination Emax: 0.059
[3]
  combination Emax: 0.0829
[4]
  combination Emax: 0.0538

## CS(=O)(=O)CCNCc1ccc(-c2ccc3ncnc(Nc4ccc(OCc5cccc(F)c5)c(Cl)c4)c3c2)o1 [Lapatinib] + C[C@@H](Oc1cc(-c2cnn(C3CCNCC3)c2)cnc1N)c1c(Cl)ccc(F)c1Cl [Crizotinib] (first compound max 10 µM, 7x7, partner max 10 µM)
[1]
  Bliss excess: -0.0235
[2]
  combination Emax: 0.846
[3]
  combination Emax: 0.679
[4]
  combination Emax: 0.963

## CS(=O)(=O)CCNCc1ccc(-c2ccc3ncnc(Nc4ccc(OCc5cccc(F)c5)c(Cl)c4)c3c2)o1 [Lapatinib] + Cn1cnc2c(F)c(Nc3ccc(Br)cc3Cl)c(C(=O)NOCCO)cc21 [Selumetinib] (first compound max 10 µM, 7x7, partner max 10 µM)
[1]
  Bliss excess: -0.0562
[2]
  combination Emax: 0.879

## CS(=O)(=O)CCNCc1ccc(-c2ccc3ncnc(Nc4ccc(OCc5cccc(F)c5)c(Cl)c4)c3c2)o1 [Lapatinib] + NC1(c2ccc(-c3nc4ccn5c(=O)[nH]nc5c4cc3-c3ccccc3)cc2)CCC1 [MK-2206] (first compound max 10 µM, 7x7, partner max 10 µM)
[1]
  Bliss excess: 0.0739
[2]
  combination Emax: 0.683

## CC(=O)c1c(C)c2cnc(Nc3ccc(N4CCNCC4)cn3)nc2n(C2CCCC2)c1=O [Palbociclib] + CC1(C)CCC(CN2CCN(c3ccc(C(=O)NS(=O)(=O)c4ccc(NCC5CCOCC5)c([N+](=O)[O-])c4)c(Oc4cnc5[nH]ccc5c4)c3)CC2)=C(c2ccc(Cl)cc2)C1 [Venetoclax] (first compound max 10 µM, 7x7, partner max 1 µM)
[1]
  Bliss excess: -0.0679
[2]
  combination Emax: 0.585
[3]
  combination Emax: 0.387
[4]
  combination Emax: 0.989

## CC(=O)c1c(C)c2cnc(Nc3ccc(N4CCNCC4)cn3)nc2n(C2CCCC2)c1=O [Palbociclib] + Cc1c2c(nn1C)CSCc1cc(n(C)n1)CSc1cc(c3ccccc3c1)OCCCc1c(C(=O)O)n(C)c3c-2c(Cl)ccc13 [AZD5991] (first compound max 10 µM, 7x7, partner max 1 µM)
[1]
  Bliss excess: 0.0376
[2]
  combination Emax: 1
[3]
  combination Emax: 0.939
[4]
  combination Emax: 0.986

## CC(=O)c1c(C)c2cnc(Nc3ccc(N4CCNCC4)cn3)nc2n(C2CCCC2)c1=O [Palbociclib] + Cn1cnc2c(F)c(Nc3ccc(Br)cc3Cl)c(C(=O)NOCCO)cc21 [Selumetinib] (first compound max 10 µM, 7x7, partner max 10 µM)
[1]
  Bliss excess: 0.0289
[2]
  combination Emax: 0.935
[3]
  combination Emax: 0.547
[4]
  combination Emax: 0.661

## C[C@@H](c1ccc2nccn2c1)n1nnc2ncc(-c3cnn(C)c3)nc21 [Savolitinib] + CC1(C)CCC(CN2CCN(c3ccc(C(=O)NS(=O)(=O)c4ccc(NCC5CCOCC5)c([N+](=O)[O-])c4)c(Oc4cnc5[nH]ccc5c4)c3)CC2)=C(c2ccc(Cl)cc2)C1 [Venetoclax] (first compound max 1 µM, 7x7, partner max 1 µM)
[1]
  Bliss excess: -0.0358
[2]
  combination Emax: 0.154
[3]
  combination Emax: 0.106
[4]
  combination Emax: 1

## C[C@@H](c1ccc2nccn2c1)n1nnc2ncc(-c3cnn(C)c3)nc21 [Savolitinib] + Cc1c2c(nn1C)CSCc1cc(n(C)n1)CSc1cc(c3ccccc3c1)OCCCc1c(C(=O)O)n(C)c3c-2c(Cl)ccc13 [AZD5991] (first compound max 1 µM, 7x7, partner max 1 µM)
[1]
  Bliss excess: -0.0103
[2]
  combination Emax: 0.967
[3]
  combination Emax: 0.983
[4]
  combination Emax: 0.678

## Cn1cnc2c(F)c(Nc3ccc(Br)cc3Cl)c(C(=O)NOCCO)cc21 [Selumetinib] + C=CCn1c(=O)c2cnc(Nc3ccc(N4CCN(C)CC4)cc3)nc2n1-c1cccc(C(C)(C)O)n1 [AZD1775] (first compound max 10 µM, partner max 1 µM)
[1]
  Bliss excess: -0.0213
[2]
  combination Emax: 0.94
[3]
  combination Emax: 0.438
[4]
  combination Emax: 0.915

## Cn1cnc2c(F)c(Nc3ccc(Br)cc3Cl)c(C(=O)NOCCO)cc21 [Selumetinib] + CC(C)n1c(=O)n(C)c2cnc3cc(F)c(-c4ccc(OCCCN5CCCCC5)nc4)cc3c21 [AZD1390] (first compound max 10 µM, 7x7, partner max 0.3 µM)
[1]
  Bliss excess: -0.0696
[2]
  combination Emax: 0.909
[3]
  combination Emax: 0.26
[4]
  combination Emax: 0.328

## Cn1cnc2c(F)c(Nc3ccc(Br)cc3Cl)c(C(=O)NOCCO)cc21 [Selumetinib] + CCN(CCO)CCCOc1ccc2c(Nc3cc(CC(=O)Nc4cccc(F)c4)[nH]n3)ncnc2c1 [AZD2811] (first compound max 10 µM, 7x7, partner max 1 µM)
[1]
  Bliss excess: 0.0086
[2]
  combination Emax: 0.949
[3]
  combination Emax: 0.446
[4]
  combination Emax: 1

## Cn1cnc2c(F)c(Nc3ccc(Br)cc3Cl)c(C(=O)NOCCO)cc21 [Selumetinib] + C[C@@H]1COCCN1C2=NC(=NC(=C2)C3(CC3)[S@](=N)(=O)C)C4=C5C=CNC5=NC=C4 [AZD6738] (first compound max 10 µM, 7x7, partner max 10 µM)
[1]
  Bliss excess: -0.0941
[2]
  combination Emax: 0.943
[3]
  combination Emax: 0.871
[4]
  combination Emax: 0.986
